Results from PubChem BioAssay AID2816 (Southern Research Specialized Biocontainment Screening …, 2010).
Calls of active or inactive are those of the source.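 How the source made its calls: active means compound-induced drop in polymyxin IC50 in wild-type bacteria exceeding double the drop in a mutant lacking PhoP; inactive means the rest.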

System: not listed separately
Experiment: polymyxin IC50 shift, WT versus phoP- Typhimurium – Salmonella typhimurium, WT and phoP- strains, set 2, mechanism study for PhoP regulon inhibitor project (AID 2816)
Conditions: S. Typhimurium polymyxin IC50 shift, OD600, 24 h; at 150 µM; stronger effect = higher value

Question: For `O=C(Nc1ccc(Br)cc1)N1CCCN(Cc2ccccc2F)C1`, which polymyxin IC50 shift difference WT - phoP- is on record?
Answer: -2.51 (inactive)

Question: With `COc1cccc(C2Sc3ccccc3NC3=C2C(=O)c2ccccc23)c1` (stereo not drawn) as the compound, how does the polymyxin IC50 shift difference WT - phoP- read?
Answer: -1.75 (inactive)

Question: For `O=C1C2=C(Nc3ccccc3SC2c2ccsc2)c2ccccc21` (stereo not drawn), which polymyxin IC50 shift difference WT - phoP- is on record?
Answer: 2.14 (inactive)

Question: For `CCn1cc(C(=O)O)c(=O)c2cc(F)c(N3CCN(C(=S)Nc4ccccc4C(F)(F)F)CC3)cc21`, which polymyxin IC50 shift difference WT - phoP- is on record?
Answer: -3.38 (inactive)

Question: For `O=C1C2=C(Nc3ccccc3SC2c2ccc(I)cc2)c2ccccc21` (stereo not drawn), which polymyxin IC50 shift difference WT - phoP- is on record?
Answer: 1.63 (inactive)

Same assay, conditions: S. Typhimurium polymyxin IC50 shift, OD600, 24 h; measured here: phoP- strain counter-screen shift; at 150 µM

Question: Which polymyxin IC50 shift does the source give for `COc1ccc(CNC(=S)Nc2ccncc2)cc1` here?
Answer: 1.46

Question: Which polymyxin IC50 shift does the source give for `O=C(Nc1ccc(Br)cc1)N1CCCN(Cc2ccccc2F)C1` here?
Answer: 1.55

Question: Which polymyxin IC50 shift does the source give for `COc1cccc(C2Sc3ccccc3NC3=C2C(=O)c2ccccc23)c1` (stereo not drawn) here?
Answer: 5.35

Question: Which polymyxin IC50 shift does the source give for `O=C1C2=C(Nc3ccccc3SC2c2ccsc2)c2ccccc21` (stereo not drawn) here?
Answer: -0.359

Question: Which polymyxin IC50 shift does the source give for `CCn1cc(C(=O)O)c(=O)c2cc(F)c(N3CCN(C(=S)Nc4ccccc4C(F)(F)F)CC3)cc21` here?
Answer: 3.42

Question: With `O=C1C2=C(Nc3ccccc3SC2c2ccc(I)cc2)c2ccccc21` (stereo not drawn) as the compound, how does the polymyxin IC50 shift read?
Answer: 1.03

Same assay, conditions: S. Typhimurium polymyxin IC50 shift, OD600, 24 h; measured here: wild-type strain IC50 shift; at 150 µM; stronger effect = higher value

Question: Which polymyxin IC50 shift does the source give for `COc1ccc(CNC(=S)Nc2ccncc2)cc1` here?
Answer: 10.1

Question: Which polymyxin IC50 shift does the source give for `O=C(Nc1ccc(Br)cc1)N1CCCN(Cc2ccccc2F)C1` here?
Answer: -0.956

Question: Which polymyxin IC50 shift does the source give for `COc1cccc(C2Sc3ccccc3NC3=C2C(=O)c2ccccc23)c1` (stereo not drawn) here?
Answer: 3.6

Question: For `O=C1C2=C(Nc3ccccc3SC2c2ccsc2)c2ccccc21` (stereo not drawn), which polymyxin IC50 shift is on record?
Answer: 1.78

Question: With `CCn1cc(C(=O)O)c(=O)c2cc(F)c(N3CCN(C(=S)Nc4ccccc4C(F)(F)F)CC3)cc21` as the compound, how does the polymyxin IC50 shift read?
Answer: 0.032

Question: With `O=C1C2=C(Nc3ccccc3SC2c2ccc(I)cc2)c2ccccc21` (stereo not drawn) as the compound, how does the polymyxin IC50 shift read?
Answer: 2.66

System: S. Typhimurium polymyxin IC50 shift, OD600, 24 h
Experiment: as above
Conditions: not given

Question: With `COc1ccc(CNC(=S)Nc2ccncc2)cc1` as the compound, how does the IC50 read?
Answer: 75000 nM

Same assay, conditions: WT polymyxin IC50 at 150 uM; stronger effect = lower value

Question: For `O=C(Nc1ccc(Br)cc1)N1CCCN(Cc2ccccc2F)C1`, which polymyxin IC50 is on record?
Answer: 4820 nM

Question: Which polymyxin IC50 does the source give for `COc1cccc(C2Sc3ccccc3NC3=C2C(=O)c2ccccc23)c1` (stereo not drawn) here?
Answer: 2110 nM

Question: For `O=C1C2=C(Nc3ccccc3SC2c2ccsc2)c2ccccc21` (stereo not drawn), which polymyxin IC50 is on record?
Answer: 2670 nM

Question: With `CCn1cc(C(=O)O)c(=O)c2cc(F)c(N3CCN(C(=S)Nc4ccccc4C(F)(F)F)CC3)cc21` as the compound, how does the polymyxin IC50 read?
Answer: 2590 nM

Question: Which polymyxin IC50 does the source give for `O=C1C2=C(Nc3ccccc3SC2c2ccc(I)cc2)c2ccccc21` (stereo not drawn) here?
Answer: 2470 nM

Same assay, conditions: phoP- polymyxin IC50 at 150 uM

Question: For `COc1ccc(CNC(=S)Nc2ccncc2)cc1`, which polymyxin IC50 is on record?
Answer: 4420 nM

Question: For `O=C(Nc1ccc(Br)cc1)N1CCCN(Cc2ccccc2F)C1`, which polymyxin IC50 is on record?
Answer: 2620 nM

Question: For `O=C1C2=C(Nc3ccccc3SC2c2ccsc2)c2ccccc21` (stereo not drawn), which polymyxin IC50 is on record?
Answer: 3000 nM

Question: With `CCn1cc(C(=O)O)c(=O)c2cc(F)c(N3CCN(C(=S)Nc4ccccc4C(F)(F)F)CC3)cc21` as the compound, how does the polymyxin IC50 read?
Answer: 2950 nM

Question: Which polymyxin IC50 does the source give for `O=C1C2=C(Nc3ccccc3SC2c2ccc(I)cc2)c2ccccc21` (stereo not drawn) here?
Answer: 2890 nM
